The numbers were not newly measured in patent publication US20250009631A1, “METHOD OF NAIL STRENGTHENING WITH A COMPLEX MICHAEL ADDITION TREATMENT COMPOSITION” (Wella Operations US, LLC, priority 2023, published 2025), which cites them from elsewhere.

Read-outs that look alike come from different tables or passages of the source.

The conditions of the series: nail plate.

Turning to `c1ccncc1` [pyridine], the permeability coefficient entry by setting is: (pH 2) “at least some permeation”; (pH 7.4) “high permeation coefficient”.
